For experiment [1], the system named is CT-DNA. Kind of experiment: Circular dichroism spectra of CT-DNA. It is filed as binding, calf. The conditions noted are these: [compound]/[DNA] 1:10; 1.5 × 10^−4 M DNA, 1.5 × 10^−5 M compound. On the procedure: CD absorption spectra of DNA were measured in TBS at a 100 nm/min scan rate in the wavelength range from 200 to 500 nm, with 1.5 × 10^−4 M DNA in the absence and presence of each compound of 1.5 × 10^−5 M, respectively. The CD signal of TBS was taken as the background and subtracted from the spectra. All the spectroscopic experiments were performed at 25 °C.
(In general: CD spectra are sensitive to the conformation of chiral molecules.)

Experiment [2] deals with MGC-803 (human lung adenocarcinoma cell line). Kind of experiment: MTT cytotoxicity assay, MGC-803. It is filed as cell-based. The following applies: 48 h, no irradiation, mean ± SD of three experiments. On the procedure:
(§1) Cell Lines. The following in vitro human cancer cell lines were used: HCT-116 (Human colorectal cells), human KB (human nasopharyngeal carcinoma cells), MGC-803 (human lung adenocarcinoma cell line), HUVEC (Human Umbilical Vein Endothelial Cells). The cell lines (HCT-116, KB, MGC-803 and HUVEC) were purchased from the Cell Resource Center of Shanghai Institutes for Biological Sciences, the Academy of Sciences of China.
(§2) Cell Culture. HCT-116, human KB, MGC-803 and HUVEC cells were cultured in Dulbecco Modified Eagle Medium (DMEM; HyClone, Los Angeles, CA, USA), containing 4.0 mM L-Glutamine and 4500 mg/L Glucose, supplemented with 10% (v/v) foetalbovine serum (FBS; HyClone). The cell culturemedia was supplemented with penicillin/streptomycin at 100 Units/mL as adherent monolayers. Cell cultures were kept in a humidified incubator with 5% CO2 at 37 °C. Stock solutions were prepared in dimethyl sulfoxide (DMSO) and further dilutions were made with fresh culture medium. The concentration of DMSO in the final culture medium was 1%, which had no effect on the cell viability.
(§3) MTT Assay. Chemosensitivity was assessed using 3-(4,5-dimethylthiazol-2-yl)-2,5-diphenyl tetrazolium bromide (MTT) assay. Briefly, exponentially growing HCT-116 (3000–4000 cells/well), human KB (2000–3000 cells/well) and MGC 803 (2000–3000 cells/well) were seeded into 96-well plates and treated with indicated concentrations of samples for 48 h, and then […] of MTT (10 mg/mL) was added. After incubation for 4 h at 37 °C, the purple formazan crystals (i.e., a reduced form of MTT) generated from viable cells were dissolved by adding 100 μL DMSO in each well. The plates were swirled gently for 10 min to dissolve the precipitate, and quantified by measuring the optical density (OD) of the plates at a wavelength of 490 nm on plate reader (TECAN infinite M1000). Each concentration was repeated in three wells and the same experimental conditions were provided for all compounds and MTT analysis was repeated three times for each cell line.
(In general: Formazan colour is commonly taken as a measure of viable cells.)

A further experiment concerns GelRed/CT-DNA. Put plainly: GelRed-DNA competitive binding (fluorescence quenching). Set-up: species or system calf. The following applies: I0/I vs [Q]; [GelRed]/[DNA] = 1:10, ex 350 nm, em 590 nm.
The test system of experiment [3] is CT-DNA. Kind of experiment: Spectrofluorimetric titration with CT-DNA (Stern-Volmer and binding constants). More on the design: species or system calf. The conditions noted are these: from F0/F-1 vs [DNA]; Tris-HCl buffer pH 7.2. On the procedure: The DNA binding properties of compounds 8a–8j were evaluated based on their affinity or interaction with CT-DNA, measured with fluorescence spectrometric titration.
The calibration curve for determination of DNA was constructed by adding different proportion of DNA to a 2.0 × 10^−3 M compound 8j solution (pH = 7.2 Tris-HCl buffer). […] [Q] is the concentration of quencher. KSV is the Stern-Volmer constant and KQ is the bimolecular quenching rate constant. τ0 is the lifetime of the fluorophore in the absence of quencher and for most biomolecules τ0 is about 10^−8 s. The Stern-Volmer constant, KSV, for compound 8j has been determined from the plot of F0/F-1 vs. [DNA] (see Figure 2) and found to be 5.11 × 10^2 M^−1.
When small molecules binding independently to a set of equivalent sites on a macromolecule, the equilibrium between free and bound molecules is given by the equation [28]: (2) lg (F0/F-1) = lgKb + nlg[Q] where Kb and n are the binding constant and the number of binding sites, respectively, which could be got from the curve of lg(F0/F-1) vs. lg[Q]. The plot of lg(F0/F-1) vs. lg[DNA] has been shown in Figure 3 for compound 8j and indicates a simple binding process for the compound.
All fluorescence experiments were carried out on a Perkin-Elmer LS50B luminescence spectrometer. Fluorescence spectra were measured at rt using quartz cells of 1cm path. To the solutions of the drugs (2.0 × 10^−3 M) in 2.5 mL Tris-HCl buffer (pH = 7.2) were added aliquots of CT-DNA (2.0 × 10^−3 M) solution containing drugs (2.0 × 10^−3 M) in 2.5 mL Tris-HCl buffer (pH = 7.2). This operation ensured that the concentration of CT-DNA increased gradually from 0 to 360 µM, while the concentrations of drugs were kept constant. The mixing was achieved by stirring for 10min. Then, the corresponding fluorescence spectra were measured (ex 325 nm, ex/em 1.5 nm/1.5 nm). Binding constants were derived from the modified.

The test system of experiment [4] is HCT-116 (Human colorectal cells). Kind of experiment: MTT cytotoxicity assay, HCT-116. The conditions noted are these: MTT, 48 h, no irradiation, mean ± SD of three experiments. Type of experiment: cell-based. On the procedure:
as §1, §2, §3

For experiment [5], the system named is HUVEC (Human Umbilical Vein Endothelial Cells). Put plainly: MTT cytotoxicity assay, HUVEC normal cells. Type of experiment: cell-based. The conditions noted are these: no irradiation, mean ± SD of three experiments. On the procedure: as §1, §2, §3

Each structure is given as a SMILES string.

Consider `CCOP(=O)(OCC)C(NC(=O)CCOc1ccc2c(C)cc(=O)oc2c1)c1ccccc1OC` (stereo not shown) [Compound 8h, Diethyl(3-(4-methyl-2-oxo-2H-chromen-7-yloxy)propanamido)(2-methoxyphenyl)methylphos-phonate], for which the “Negative AI decrease (CD absorption peak of CT-DNA at 247 nm)” value in the experiment with CT-DNA [1] is listed as 28.5%. In addition, the “Positive AI decrease (CD absorption peak of CT-DNA at 281 nm)” value in the experiment with CT-DNA [1] is given as 34.5%. Also, the 50% inhibitory concentration (IC50) is 36.9 ± 1.96 µM in experiment [2], 23.7 ± 5.89 µM in experiment [4] and more than 100 µM in experiment [5]. Besides, the “Kq (quenching constant of GelRed bound to DNA)” value in the experiment on GelRed/CT-DNA stood at 2410 M⁻¹. In addition, the “KSV (Stern-Volmer constant)” value with CT-DNA [3] was 357 M⁻¹.

Broadly, the IC50 is the concentration that gives 50% inhibition. Read a low IC50 as greater potency in that assay.

The values above are taken from paper PMC6331810, “Novel Coumarin-Containing Aminophosphonatesas Antitumor Agent: Synthesis, Cytotoxicity, DNA-Binding and Apoptosis Evaluation” (Molecules, 2015).
